Results taken from ChEMBL document CHEMBL3046521, “Synthesis and antitumor activity of (4-hydroxyphenyl)[5-substituted alkyl/aryl)-2-thioxo-1,3,4-thiadiazol-3-yl]methanone and [(3,4-disubstituted)-1,3-thiazol-2ylidene]-4-hydroxybenzohydrazide” (2011).

Legend:
Assay type in all cases: functional
UACC-257 = assay: Cytotoxicity against Homo sapiens (human) UACC257 cells after 48 hr by sulforhodamine B assay; details: UACC-257, 48 h
Malme-3M = assay: Cytotoxicity against Homo sapiens (human) MALME-3M cells after 48 hr by sulforhodamine B assay
NCI-H226 = assay: Cytotoxicity against Homo sapiens (human) NCI-H226 cells after 48 hr by sulforhodamine B assay; details: NCI-H226, 48 h
M14 = assay: Cytotoxicity against Homo sapiens (human) M14 cells after 48 hr by sulforhodamine B assay; details: M14, 48 h
U-251 = assay: Cytotoxicity against Homo sapiens (human) U251 cells after 48 hr by sulforhodamine B assay; details: U-251, 48 h
DU-145 = assay: Cytotoxicity against Homo sapiens (human) DU145 cells after 48 hr by sulforhodamine B assay; details: DU-145, 48 h
OVCAR-8 = assay: Cytotoxicity against Homo sapiens (human) OVCAR8 cells after 48 hr by sulforhodamine B assay; details: OVCAR-8, 48 h
SK-MEL-28 = assay: Cytotoxicity against Homo sapiens (human) SK-MEL-28 cells after 48 hr by sulforhodamine B assay; details: SK-MEL-28, 48 h
786-0 = assay: Cytotoxicity against Homo sapiens (human) 786-0 cells after 48 hr by sulforhodamine B assay; details: 786-0, 48 h
EKVX = assay: Cytotoxicity against Homo sapiens (human) EKVX cells after 48 hr by sulforhodamine B assay
HL-60(TB) = assay: Cytotoxicity against Homo sapiens (human) HL-60(TB) cells after 48 hr by sulforhodamine B assay; details: HL-60, 48 h
[1] = Cytotoxicity against Homo sapiens (human) NCI-ADR-RES cells after 48 hr by sulforhodamine B assay
ACHN = assay: Cytotoxicity against Homo sapiens (human) ACHN cells after 48 hr by sulforhodamine B assay
KM12 = assay: Cytotoxicity against Homo sapiens (human) KM12 cells after 48 hr by sulforhodamine B assay; details: KM12, 48 h
LOX IMVI = assay: Cytotoxicity against Homo sapiens (human) LOXIMVI cells after 48 hr by sulforhodamine B assay
NCI-H23 = assay: Cytotoxicity against Homo sapiens (human) NCI-H23 cells after 48 hr by sulforhodamine B assay; details: NCI-H23, 48 h
[2] = Cytotoxicity against Homo sapiens (human) […] cells after 48 hr by sulforhodamine B assay
SNB-19 = assay: Cytotoxicity against Homo sapiens (human) SNB19 cells after 48 hr by sulforhodamine B assay; details: SNB-19, 48 h
PC-3 = assay: Cytotoxicity against Homo sapiens (human) PC3 cells after 48 hr by sulforhodamine B assay; details: PC-3, 48 h
HCT-15 = assay: Cytotoxicity against Homo sapiens (human) HCT15 cells after 48 hr by sulforhodamine B assay; details: HCT-15, 48 h
SR = assay: Cytotoxicity against Homo sapiens (human) SR cells after 48 hr by sulforhodamine B assay
SF-295 = assay: Cytotoxicity against Homo sapiens (human) SF295 cells after 48 hr by sulforhodamine B assay; details: SF-295, 48 h
SK-MEL-5 = assay: Anticancer activity in Homo sapiens (human) SK-MEL-5 cells assessed as cell growth at 10^-5 M after 48 hr by SRB assay; details: SK-MEL-5, 48 h, read-out: Activity
HT-29 = assay: Cytotoxicity against Homo sapiens (human) HT-29 cells after 48 hr by sulforhodamine B assay; details: HT-29, 48 h
SNB-75 = assay: Cytotoxicity against Homo sapiens (human) SNB75 cells after 48 hr by sulforhodamine B assay; details: SNB-75, 48 h
Hs-578T = assay: Cytotoxicity against Homo sapiens (human) Hs 578T cells after 48 hr by sulforhodamine B assay
T47D = assay: Cytotoxicity against Homo sapiens (human) T47D cells after 48 hr by sulforhodamine B assay
HOP-62 = assay: Cytotoxicity against Homo sapiens (human) HOP62 cells after 48 hr by sulforhodamine B assay; details: HOP-62, 48 h
COLO 205 = assay: Cytotoxicity against Homo sapiens (human) COLO205 cells after 48 hr by sulforhodamine B assay; details: COLO 205, 48 h
NCI-H460 = assay: Cytotoxicity against Homo sapiens (human) NCI-H460 cells after 48 hr by sulforhodamine B assay; details: NCI-H460, 48 h

Question: With `Cc1ccc(-c2cs/c(=N\NC(=O)c3ccc(O)cc3)n2-c2c(C)cccc2C)cc1` as the compound, how does the GI50 (UACC-257) read?
Answer: 42.7 µM

Question: And the LC50 (UACC-257)?
Answer: > 100 µM

Question: What about the TGI (UACC-257; read-out: pTGI (converted)) of the same compound?
Answer: > 100 µM

Question: And the GI50 (Malme-3M)?
Answer: 22.4 µM

Question: And the LC50 (Malme-3M)?
Answer: > 100 µM

Question: What about the TGI (Malme-3M; read-out: pTGI (converted)) of the same compound?
Answer: 85.1 µM

Question: And the GI50 (NCI-H226)?
Answer: 26.3 µM

Question: What about the LC50 (NCI-H226) of the same compound?
Answer: > 100 µM

Question: What about the TGI (NCI-H226; read-out: pTGI (converted)) of the same compound?
Answer: > 100 µM

Question: What about the GI50 (M14) of the same compound?
Answer: 21.4 µM

Question: And the LC50 (M14)?
Answer: > 100 µM

Question: What about the TGI (M14; read-out: pTGI (converted)) of the same compound?
Answer: 72.4 µM

Question: And the GI50 (U-251)?
Answer: 25.1 µM

Question: What about the LC50 (U-251) of the same compound?
Answer: > 100 µM

Question: And the TGI (U-251; read-out: pTGI (converted))?
Answer: > 100 µM

Question: What about the GI50 (DU-145) of the same compound?
Answer: 28.2 µM

Question: What about the LC50 (DU-145) of the same compound?
Answer: > 100 µM

Question: What about the TGI (DU-145; read-out: pTGI (converted)) of the same compound?
Answer: > 100 µM

Question: What about the GI50 (OVCAR-8) of the same compound?
Answer: 31.6 µM

Question: What about the LC50 (OVCAR-8) of the same compound?
Answer: > 100 µM

Question: What about the TGI (OVCAR-8; read-out: pTGI (converted)) of the same compound?
Answer: > 100 µM

Question: And the GI50 (SK-MEL-28)?
Answer: 30.9 µM

Question: And the LC50 (concentration killing 50% of cells) (SK-MEL-28)?
Answer: > 100 µM

Question: What about the TGI (SK-MEL-28; read-out: pTGI (converted)) of the same compound?
Answer: 83.2 µM

Question: What about the GI50 (786-0) of the same compound?
Answer: 22.4 µM

Question: What about the LC50 (786-0) of the same compound?
Answer: > 100 µM

Question: What about the TGI (786-0; read-out: pTGI (converted)) of the same compound?
Answer: > 100 µM

Question: And the GI50 (EKVX)?
Answer: 25.1 µM

Question: And the LC50 (EKVX)?
Answer: > 100 µM

Question: What about the TGI (EKVX; read-out: pTGI (converted)) of the same compound?
Answer: > 100 µM

Question: And the GI50 (HL-60(TB))?
Answer: 11.5 µM

Question: What about the CC50 (HL-60(TB); read-out: pLC50 (the source's name) (converted)) of the same compound?
Answer: > 100 µM

Question: What about the TGI (HL-60(TB); read-out: pTGI (converted)) of the same compound?
Answer: 64.6 µM

Question: And the GI50 [1]?
Answer: 21.4 µM

Question: And the LC50 [1]?
Answer: > 100 µM

Question: What about the TGI ([1]; read-out: pTGI (converted)) of the same compound?
Answer: 69.2 µM

Question: What about the GI50 (ACHN) of the same compound?
Answer: 20.9 µM

Question: And the LC50 (ACHN)?
Answer: > 100 µM

Question: And the TGI (ACHN; read-out: pTGI (converted))?
Answer: > 100 µM

Question: What about the GI50 (KM12) of the same compound?
Answer: 18.2 µM

Question: What about the LC50 (KM12) of the same compound?
Answer: > 100 µM

Question: What about the TGI (KM12; read-out: pTGI (converted)) of the same compound?
Answer: 89.1 µM

Question: What about the GI50 (LOX IMVI) of the same compound?
Answer: 21.9 µM

Question: And the LC50 (LOX IMVI)?
Answer: > 100 µM

Question: And the TGI (LOX IMVI; read-out: pTGI (converted))?
Answer: > 100 µM

Question: And the GI50 (NCI-H23)?
Answer: 25.7 µM

Question: And the LC50 (NCI-H23)?
Answer: > 100 µM

Question: What about the TGI (NCI-H23; read-out: pTGI (converted)) of the same compound?
Answer: > 100 µM

Question: And the GI50 [2]?
Answer: 20 µM

Question: What about the LC50 [2] of the same compound?
Answer: > 100 µM

Question: What about the TGI ([2]; read-out: pTGI (converted)) of the same compound?
Answer: > 100 µM

Question: And the GI50 (SNB-19)?
Answer: 20.9 µM

Question: What about the LC50 (SNB-19) of the same compound?
Answer: > 100 µM

Question: And the TGI (SNB-19; read-out: pTGI (converted))?
Answer: > 100 µM

Question: And the GI50 (PC-3)?
Answer: 11 µM

Question: What about the LC50 (PC-3) of the same compound?
Answer: > 100 µM

Question: And the TGI (PC-3; read-out: pTGI (converted))?
Answer: 91.2 µM

Question: What about the GI50 (HCT-15) of the same compound?
Answer: 17 µM

Question: And the LC50 (concentration killing 50% of cells) (HCT-15)?
Answer: > 100 µM

Question: And the TGI (HCT-15; read-out: pTGI (converted))?
Answer: > 100 µM

Question: What about the GI50 (SR) of the same compound?
Answer: 16.2 µM

Question: And the LC50 (SR)?
Answer: > 100 µM

Question: What about the TGI (SR; read-out: pTGI) of the same compound?
Answer: > 100 µM

Question: And the GI50 (SF-295)?
Answer: 20.9 µM

Question: And the LC50 (SF-295)?
Answer: > 100 µM

Question: And the TGI (SF-295; read-out: pTGI (converted))?
Answer: 79.4 µM

Question: What about the growth at 10 µM (SK-MEL-5) of the same compound?
Answer: 5.18%

Question: And the GI50 (HT-29)?
Answer: 17.4 µM

Question: What about the LC50 (HT-29) of the same compound?
Answer: 83.2 µM

Question: And the TGI (HT-29; read-out: pTGI (converted))?
Answer: 38 µM

Question: And the GI50 (SNB-75)?
Answer: 24.5 µM

Question: And the LC50 (SNB-75)?
Answer: > 100 µM

Question: And the TGI (SNB-75; read-out: pTGI (converted))?
Answer: > 100 µM

Question: And the GI50 (Hs-578T)?
Answer: 23.4 µM

Question: What about the LC50 (Hs-578T) of the same compound?
Answer: > 100 µM

Question: What about the TGI (Hs-578T; read-out: pTGI (converted)) of the same compound?
Answer: 91.2 µM

Question: And the GI50 (T47D)?
Answer: 12.9 µM

Question: And the LC50 (T47D)?
Answer: > 100 µM

Question: And the TGI (T47D; read-out: pTGI (converted))?
Answer: 63.1 µM

Question: What about the GI50 (HOP-62) of the same compound?
Answer: 23.4 µM

Question: And the LC50 (HOP-62)?
Answer: > 100 µM

Question: What about the TGI (HOP-62; read-out: pTGI (converted)) of the same compound?
Answer: 74.1 µM

Question: What about the GI50 (COLO 205) of the same compound?
Answer: 16.6 µM

Question: What about the LC50 (COLO 205) of the same compound?
Answer: > 100 µM

Question: What about the TGI (COLO 205; read-out: pTGI (converted)) of the same compound?
Answer: 66.1 µM

Question: And the GI50 (NCI-H460)?
Answer: 14.8 µM

Question: And the LC50 (NCI-H460)?
Answer: > 100 µM

Question: And the TGI (NCI-H460; read-out: pTGI (converted))?
Answer: 72.4 µM
